According to US20260314597A1, “A NOVEL APPROACH TO INTERFERE IN THE PHENYLPROPANOID BIOSYNTHETIC PATHWAY TO REDUCE PINK-RIB DISORDER IN FRESH LETTUCE” (University of Florida Research Foundation, Inc., priority 2022, published 2026):
Entries after “also recorded” stand apart in the source; their conditions may differ. Like-named read-outs stand apart in the source and are kept apart here.

Tests used:
[1] = system: fresh-cut iceberg lettuce; conditions: cited from earlier work
fresh-cut cherimoya = conditions: L-cysteine 0.5% or 41.3 mM; 0° C.; cited from earlier work
PPO [2] = conditions: role: inhibitor; L-cysteine 1% or 82.5 mM; after 2 d and up to 8 d at 1° C.; cited from earlier work
PPO [3] = conditions: role: inhibitor; L-cysteine; cited from earlier work
cassava roots [4] = conditions: melatonin 0.1 mM, cited from earlier work
pear flesh = conditions: melatonin 0.1 mM, cited from earlier work
cassava roots [5] = conditions: cited from earlier work
peach fruit = conditions: cited from earlier work
PAL = conditions: melatonin; 25 d storage at 4° C.; cited from earlier work
[6] = system: metabolites in wounded Romaine lettuce midrib; assay: Untargeted LC-MS/MS metabolomics of melatonin-treated wounded midribs (Test 3); format: in vivo, lettuce (Romaine 'Manatee')
Method: For Test 1, the evaluations for pink rib development, protein quantification, and enzyme activity were conducted with Romaine and iceberg lettuce heads (36 heads per type; cultivars unknown) purchased (February 2020) upon arrival at a local grocery store in Gainesville, FL, and immediately transported to the Postharvest Horticulture Laboratory at the University of Florida in Gainesville, FL. For Test 2, metabolite extraction and detection were conducted with commercially grown, harvested, and cooled Romaine (‘Tall Guzmaine’) and iceberg (‘Chosen’) lettuce (December 2020) grown in Belle Glade, FL. For Test 3, untargeted metabolomics was performed using commercially grown, harvested, and cooled Romaine (‘Manatee’) lettuce grown in Belle Glade, FL (April 2021). To keep the lettuce head samples cool while preventing freeze damage during transport, a 3- to 6-inch layer of crushed ice was placed on the bottom of each 114-L cooler. A piece of waxed, corrugated fiberboard was placed on top of the ice prior to packing with the lettuce samples for transport the same day to the Postharvest Horticulture Laboratory in Gainesville (approximately 4 h distant).
In all tests, experimental setup began immediately upon arrival to the laboratory. 90 outer leaves were randomly selected from 18 to 22 lettuce heads that met commercial and damage-free quality standards. A midrib segment (12.5 cm) was excised from the center of each leaf and excess leaf blade tissue was trimmed parallel to the midrib. This procedure was adapted from the wounding procedure of Cantwell (2016). Each midrib was then partially sliced transversally at 1.3-cm increments along the midrib. Midribs (n=15) were immediately immersed for 30 s in one of five treatment solutions: deionized water (wounded control), L-cysteine (4.1 mM), naringenin (1.8 mM) with 20% dimethyl sulfoxide (DMSO), serotonin (2.8 or 5.7 mM) or melatonin (4.3 mM) with 0.50% DMSO. Immediately following immersion, the midribs for each treatment were patted dry using paper towels and placed (n=5) in a breathable, high-density polyethylene bag (n=3) (Narrow Profile Produce Bags [14×18 inches] Model No. S-19156, Uline®, Pleasant Prairie, WI). Unwounded control midribs were stored in the same manner. To allow for direct comparison, each cut site on each midrib was assigned an initial discoloration value on day 1 based on the coloration of the rib. Samples were stored at 5° C. with 95-98% relative humidity (RH) for 5 d, simulating commercial storage.
Unwounded, wounded, and compound-treated wounded midrib samples were collected for untargeted metabolite analysis to identify global metabolite changes in response to melatonin application and targeted metabolite analysis to quantify chlorogenic acid a major caffeoyl compound in lettuce. For both targeted and untargeted metabolite analyses, fresh samples (500-800 mg) of the midribs from each treatment (n=3) were weighed, then immediately frozen in liquid nitrogen and stored at −80° C. for subsequent metabolite extraction. Frozen samples were extracted with a 50% methanol extraction solution containing a 1:1 (v:v) of methanol with deionized water. Samples were completely submerged in a 1:1.5 (w:v) of the sample weight (mg) to extraction solution volume (μL), respectively, and incubated at 65° C. for 90 min and then centrifuged at 9660×g for 10 min (MC-12 High Speed Micro Centrifuge, Benchmark Scientific, Edison, NJ). The supernatant was transferred to a new tube and filtered with a 0.45 μm filter (Choice, Thermo Scientific, Wilmington, DE). An aliquot of 400 μL was vacuum-dried.
For untargeted metabolite analysis, vacuum-dried samples were resuspended into 100 μL of 50% methanol solution containing an internal standard umbelliferon (18 μg mL^−1) and vortexed for 1 min. After centrifugation at 13,000×g for 15 min, the solutions were transferred to sample inserts and analyzed. […]

PPO [7] = conditions: melatonin 0.4 mM; litchi pericarp; up to 6 d; cited from earlier work
[8] = system: nonenzymatic antioxidants, such as phenolics, flavonoids, and anthocyanins; conditions: melatonin; cited from earlier work
[9] = system: key enzymes in the melatonin biosynthesis pathway; conditions: strawberry; cited from earlier work
loquat = conditions: melatonin; 25 d storage at 4° C.; cited from earlier work
romaine lettuce midribs = assay: Pink rib discoloration of romaine midribs / whole leaflets dipped 1 min, stored at 10° C.; format: in vivo
Method: Pink rib discoloration in excised midrib segments of romaine lettuce was shown above. […] 4.3 mM of melatonin solution was prepared in water containing 0.5% DMSO (dimethyl sulfoxide), and control samples were treated with water containing 0.5% DMSO.
1 mM of melatonin solution was prepared in water containing 0.5% DMSO (dimethyl sulfoxide) and control samples were treated with water containing 0.5% DMSO.

[10] = melatonin, cassava root, vs untreated

## N[C@@H](CS)C(=O)O [L-cysteine]
[1]; L-cysteine 8.3 mM, 6 d at 8° C., vs control
  reduction of discoloration of midrib surface area: greater than 80%
[1]; L-cysteine 0.1% or 8.3 mM, 8° C., untreated discolored after 2 d
  delay of pink rib development: 6 days
[1]; L-cysteine 0.1% or 8.3 mM, 6 d at 8° C.
  pink rib development, share of midrib surface area: < 20 % of the midrib surface area
fresh-cut cherimoya
  delay of pulp browning: up to 12 d
PPO [2]
  PPO activity: significantly declined
PPO [3]
  PPO activity: inhibited PPO activity

## COc1ccc2[nH]cc(CCNC(C)=O)c2c1 [melatonin]
Cassava roots [4]; 28° C., untreated control 6 h
  time to which vascular streaking disorder was delayed: 12 h
Cassava roots [4]; vs untreated control
  delay of vascular streaking / discoloration: delayed development of discoloration; also recorded: delayed twice as long as untreated control slices
Pear flesh; after 4 d at 4° C.
  total phenolic content: higher
Pear flesh; pear flesh, 8 d at 4° C.
  inhibition of browning: no inhibition of browning
Cassava roots [5]; cassava
  key enzymes in the melatonin biosynthesis pathway: Upregulation
Cassava roots [5]; [10]
  antioxidant capacity: increased
  reactive oxygen species (ROS) levels: declined
Cassava roots [5]; melatonin, cassava
  antioxidative enzymes that reduce hydrogen peroxide accumulation: activated
Peach fruit; melatonin 0.1 mM, via increased enzyme activity
  lipid peroxidation: inhibited lipid peroxidation
Peach fruit; melatonin 0.1 mM
  senescence: delayed senescence
  total phenolics: maintained total phenolics
Peach fruit; melatonin, vs untreated
  antioxidant capacity: increased
  reactive oxygen species (ROS) levels: declined
PAL
  PAL activity: increased
[6]; Romaine, wounded midrib
  effect on wounding-related metabolite changes: reduces overall metabolite changes in wounded lettuce midrib; also recorded: substantially affected wounding-related metabolite changes
[6]; Romaine, LC/MS
  chlorogenic acid abundance, melatonin-treated vs wounded: remained similar
[6]; of 25 diminished compounds
  number of wounding-diminished compounds increased with melatonin: 16 compounds
[6]; of 25 diminished compounds, vs untreated wounded samples
  number of wounding-diminished compounds remaining decreased: 9 compounds
[6]; of 68 accumulated compounds
  number of wounding-accumulated compounds reduced in abundance upon melatonin: 64 compounds
  number of wounding-accumulated compounds that maintained high abundancy: four
PPO [7]
  PPO activity: significant decrease
[8]
  nonenzymatic antioxidants (phenolics, flavonoids, anthocyanins): enhances nonenzymatic antioxidants
[9]
  key enzymes in the melatonin biosynthesis pathway: Upregulation
loquat
  chlorogenic acid concentration: increased
  quality and lignification: maintaining quality and delaying lignification
Romaine lettuce midribs; melatonin 1 mM in 0.5% DMSO, 4 days
  pink rib discoloration vs control: less pink rib discoloration than control samples
Romaine lettuce midribs; melatonin 4.3 mM in 0.5% DMSO, five days, whole leaflet
  pink rib discoloration vs control: less pink rib discoloration than control samples
